Read-outs that look alike come from different tables or passages of the source.
How the values were obtained:
[1] = tested on: HIV-1IIIB; assay: HIV-1IIIB replication inhibition assay in MT-2 lymphocytes (p24 antigen ELISA); format: cell-based; details: HIV-1IIIB infected MT-2 cell lines, concentration that inhibits HIV-1IIIB replication by 50%, NS: no suppression at concentrations below the CC50
Description: (§1) HIV-1IIIB Replication Inhibition Assay in MT-2 Lymphocytes. The evaluation of HIV-1 inhibition was carried out as follows. […] Control wells containing virus and cells only (no drug) and cells only (no virus or drug) were also prepared. A second identical set of samples were added to cells under the same conditions without virus (mock infection) for cytotoxicity determinations (CC50 defined below). […] On day 4 PI, the assay was terminated and culture supernatants were harvested for p24 antigen ELISA analysis. The compound cytotoxicity was determined by XTT using the mock-infected sample wells.

[2] = tested on: HIV-1NL4-3; assay: HIV-1NL4-3 replication inhibition assay in MT-4 lymphocytes (p24 antigen ELISA); format: cell-based
Source text: HIV-1NL4-3 Replication Inhibition Assay in MT-4 Lymphocytes. A previously described HIV-1 infectivity assay was used.^28,33 A 96-well microtiter plate was used to set up the HIV-1NL4-3 replication screening assay. NL4-3 variants at a multiplicity of infection (MOI) of 0.01 were used to infect MT4 cells. Culture supernatants were collected on day 4 post-infection for the p24 antigen capture using an ELISA kit from ZeptoMetrix Corporation (Buffalo, N.Y.).

[3] = tested on: mock-infected MT-4 cell; assay: Cytotoxicity in mock-infected MT-4 cells; format: cell-based
[4] = tested on: mock-infected MT-2 cell; assay: Cytotoxicity in mock-infected MT-2 cells (XTT); details: concentration that inhibits mock-infected MT-2 cell growth by 50%
Description: as §1

[5] = tested on: mock-infected MT-2 cell
Description: as §1

[6] = HIV-1NL4-3 infected MT-4 cell lines, concentration that inhibits HIV-1NL4-3 replication by 50%

Row | SMILES | EC50 [1] | CC50 [4] | CC50 [5] | other results
1 | C=C(C)[C@@H]1CC[C@]2(C(=O)N3CCC(CCCC(=O)NC)CC3)CC[C@]3(C)[C@H](CC[C@@H]4[C@@]5(C)CC[C@H](OC(=O)CC(C)(C)C(=O)O)C(C)(C)[C@@H]5CC[C@]43C)[C@@H]12 [Compound 45] | 0.067 µM | 33.3 µM | – | EC50 [2, 6]: 0.24 µM; CC50 [3]: > 10 µM
2 | C=C(C)[C@@H]1CC[C@]2(C(=O)N[C@@H](CC(C)C)C(=O)O)CC[C@]3(C)[C@H](CC[C@@H]4[C@@]5(C)CC[C@H](NC(=O)CC(C)(C)C(=O)O)C(C)(C)[C@@H]5CC[C@]43C)[C@@H]12 [Compound 36, N′-[3β-(3′,3′-Dimethylsuccinyl)-lup-20(29)-en-28-oyl]-leucine] | – | 35.9 µM | – | EC50 ([1]; Human immunodeficiency virus 1, MT2): 13.2 µM; melting point: 248 to 250 °C
3 | C=C(COCCC)[C@@H]1CC[C@]2(C(=O)N[C@@H](CC(C)C)C(=O)O)CC[C@]3(C)[C@H](CC[C@@H]4[C@@]5(C)CC[C@H](O)C(C)(C)[C@@H]5CC[C@]43C)[C@@H]12 [Compound 11, N-[3β-Hydroxy-30-propoxy-lup-20(29)-en-28-oyl]-leucine] | > 16.7 µM | 25.3 µM | – | –
4 | C=C(COCCc1ccc(Br)cc1)[C@@H]1CC[C@]2(C(=O)N[C@@H](CC(C)C)C(=O)O)CC[C@]3(C)[C@H](CC[C@@H]4[C@@]5(C)CC[C@H](O)C(C)(C)[C@@H]5CC[C@]43C)[C@@H]12 [Compound 16, N-[3β-Hydroxy-30-(4′-bromophenethoxy)-lup-20(29)-en-28-oyl]-leucine] | > 16.7 µM | – | 20.8 µM | –
5 | C=C(C)[C@@H]1CC[C@]2(C(=O)NCCCCCCCC(=O)N[C@@H](CC(C)C)[C@H](O)CC(=O)O)CC[C@]3(C)[C@H](CC[C@@H]4[C@@]5(C)CC[C@H](O)C(C)(C)[C@@H]5CC[C@]43C)[C@@H]12 [Compound 3b, IC9564, reference compound] | – | – | – | EC50 [2, 6]: 0.089 µM; CC50 [3]: > 10 µM
6 | C=C(C)[C@@H]1CC[C@]2(C(=O)N3CCC(CCCC(=O)O)CC3)CC[C@]3(C)[C@H](CC[C@@H]4[C@@]5(C)CC[C@H](OC(=O)CCC(C)(C)C(=O)O)C(C)(C)[C@@H]5CC[C@]43C)[C@@H]12 [Compound 40, N-[3β-O-(4′,4′-Dimethylglutaryl)-lup-20(29)-en-28-oyl]-4-piperidine butyric acid] | 0.23 µM | 33.2 µM | – | –
7 | C=C(CO)[C@@H]1CC[C@]2(C(=O)N[C@@H](CC(C)C)C(=O)O)CC[C@]3(C)[C@H](CC[C@@H]4[C@@]5(C)CC[C@H](O)C(C)(C)[C@@H]5CC[C@]43C)[C@@H]12 [Compound 28, N-[3β,30-Dihydroxy-lup-20(29)-en-28-oyl]-leucine] | > 16.7 µM | 30.7 µM | – | –
8 | C=C(COCCc1ccc(F)cc1)[C@@H]1CC[C@]2(C(=O)N[C@@H](CC(C)C)C(=O)O)CC[C@]3(C)[C@H](CC[C@@H]4[C@@]5(C)CC[C@H](O)C(C)(C)[C@@H]5CC[C@]43C)[C@H]12 [Compound 15, N-[3β-Hydroxy-30-(4% fluorophenethoxy)-lup-20(29)-en-28-oyl]-leucine] | > 16.7 µM | – | 24.4 µM | –
9 | C=C(COCCN1CCOCC1)[C@@H]1CC[C@]2(C(=O)N[C@@H](CC(C)C)C(=O)O)CC[C@]3(C)[C@H](CC[C@@H]4[C@@]5(C)CC[C@H](O)C(C)(C)[C@@H]5CC[C@]43C)[C@@H]12 [Compound 19, N-[3β-Hydroxy-30-(2′-morpholinoethoxy)-lup-20(29)-en-28-oyl]-leucine] | 26.6 µM | – | 35.8 µM | –
10 | C=C(C)[C@@H]1CC[C@]2(C(=O)N3CCC(CCCC(=O)N4CCOCC4)CC3)CC[C@]3(C)[C@H](CC[C@@H]4[C@@]5(C)CC[C@H](OC(=O)CC(C)(C)C(=O)O)C(C)(C)[C@@H]5CC[C@]43C)[C@@H]12 [Compound 46, N′-[N-[3β-O-(3′,3′-Dimethylsuccinyl)-lup-20(29)-en-28-oyl]-4-piperidine-butanoyl]-morpholine] | 0.011 µM | 19.2 µM | – | EC50 [2, 6]: 0.07 µM; CC50 [3]: 8.8 µM
11 | C=C(COCCc1ccc(Cl)cc1)[C@@H]1CC[C@]2(C(=O)N[C@@H](CC(C)C)C(=O)O)CC[C@]3(C)[C@H](CC[C@@H]4[C@@]5(C)CC[C@H](O)C(C)(C)[C@@H]5CC[C@]43C)[C@@H]12 [Compound 17, N-[3β-Hydroxy-30-(4′-chlorophenethoxy)-lup-20(29)-en-28-oyl]-leucine] | 27.8 µM | – | 34.6 µM | –
12 | C=C(C)[C@@H]1CC[C@]2(C(=O)N[C@@H](CC(C)C)C(=O)O)CC[C@]3(C)[C@H](CC[C@@H]4[C@@]5(C)CC[C@H](O)C(C)(C)[C@@H]5CC[C@]43C)[C@@H]12 [Compound 22, N-[3β-Hydroxy-lup-20(29)-en-28-oyl]-leucine] | – | – | 29.8 µM | –
13 | C=C(C)[C@@H]1CC[C@]2(C(=O)N3CCC(CCCC(=O)NCCCN4CCOCC4)CC3)CC[C@]3(C)[C@H](CC[C@@H]4[C@@]5(C)CC[C@H](OC(=O)CC(C)(C)C(=O)O)C(C)(C)[C@@H]5CC[C@]43C)[C@@H]12 [Compound 48, N′-[N-[3β-O-(3′,3′-Dimethylsuccinyl)-lup-20(29)-en-28-oyl]-4-piperidine-butanoyl]-3-aminopropylmorpholine] | 0.006 µM | 18.5 µM | – | EC50 [2, 6]: 0.031 µM; CC50 [3]: 8.6 µM
14 | C=C(COCCCC)[C@@H]1CC[C@]2(C(=O)N[C@@H](CC(C)C)C(=O)O)CC[C@]3(C)[C@H](CC[C@@H]4[C@@]5(C)CC[C@H](O)C(C)(C)[C@@H]5CC[C@]43C)[C@@H]12 [Compound 12, N-[3β-Hydroxy-30-butoxy-lup-20(29)-en-28-oyl]-leucine] | > 16.7 µM | 24.9 µM | – | –
15 | C=C(CO)[C@@H]1CC[C@]2(C(=O)NCCCCCCCC(=O)O)CC[C@]3(C)[C@H](CC[C@@H]4[C@@]5(C)CC[C@H](O)C(C)(C)[C@@H]5CC[C@]43C)[C@@H]12 [Compound 29, N-[3β,30-Dihydroxy-lup-20(29)-en-28-oyl]-8-aminooctanoic acid] | 14.8 µM | – | 40.7 µM | –
16 | Cc1cn([C@H]2C[C@H](N=[N+]=[N-])[C@@H](CO)O2)c(=O)[nH]c1=O [AZT, reference compound] | – | – | 1870 µM | –
17 | C=C(CBr)[C@@H]1CC[C@]2(C(=O)NCCCCCCCC(=O)O)CC[C@]3(C)[C@H](CC[C@@H]4[C@@]5(C)CC[C@H](O)C(C)(C)[C@@H]5CC[C@]43C)[C@@H]12 [Compound 25, N-[3β-Hydroxy-30-bromo-lup-20(29)-en-28-oyl]-8-aminooctanoic acid] | 2.3 µM | – | 36.9 µM | –
18 | C=C(COCCc1ccc(OC)cc1)[C@@H]1CC[C@]2(C(=O)N[C@@H](CC(C)C)C(=O)O)CC[C@]3(C)[C@H](CC[C@@H]4[C@@]5(C)CC[C@H](O)C(C)(C)[C@@H]5CC[C@]43C)[C@@H]12 [Compound 14, N-[3β-Hydroxy-30-(4′-methoxyphenethoxy)-lup-20(29)-en-28-oyl]-leucine] | > 16.7 µM | – | 16.7 µM | –
19 | C=C(COCC)[C@@H]1CC[C@]2(C(=O)N[C@@H](CC(C)C)C(=O)O)CC[C@]3(C)[C@H](CC[C@@H]4[C@@]5(C)CC[C@H](O)C(C)(C)[C@@H]5CC[C@]43C)[C@@H]12 [Compound 10, N-[3β-Hydroxy-30-ethoxy-lup-20(29)-en-28-oyl]-leucine] | > 16.7 µM | 40.7 µM | – | –
20 | C=C(C)[C@@H]1CC[C@]2(C(=O)NCCCCCCCNC(C)=O)CC[C@]3(C)[C@H](CC[C@@H]4[C@@]5(C)CC[C@H](O)C(C)(C)[C@@H]5CC[C@]43C)[C@@H]12 [Compound 4, A43-D, reference compound] | – | – | – | EC50 [2, 6]: 0.092 µM; EC50 ([2]; value of prior best entry inhibitor 4 as given in text, unit inferred): 0.1 µM; CC50 [3]: > 10 µM
21 | C=C(C)[C@@H]1CC[C@]2(C(=O)N3CCC(CCCC(=O)NCCN4CCOCC4)CC3)CC[C@]3(C)[C@H](CC[C@@H]4[C@@]5(C)CC[C@H](OC(=O)CC(C)(C)C(=O)O)C(C)(C)[C@@H]5CC[C@]43C)[C@@H]12 [Compound 47, N′-[N-[3β-O-(3′,3′-Dimethylsuccinyl)-lup-20(29)-en-28-oyl]-4-piperidine-butanoyl]-2-aminoethylmorpholine] | 0.007 µM | 17.3 µM | – | EC50 [2, 6]: 0.035 µM; CC50 [3]: 8.5 µM
22 | C=C(CN1CCOCC1)C1CCC2(C(=O)NC(CC(C)C)C(=O)O)CCC3(C)C(CCC4C5(C)CCC(O)C(C)(C)C5CCC43C)C12 (stereo not drawn) [Compound 18, N-[3β-Hydroxy-30-morpholino-lup-20(29)-en-28-oyl]-leucine] | > 16.7 µM | 27.5 µM | – | –
23 | C=C(COCCc1ccccc1)[C@@H]1CC[C@]2(C(=O)N[C@@H](CC(C)C)C(=O)O)CC[C@]3(C)[C@H](CC[C@@H]4[C@@]5(C)CC[C@H](O)C(C)(C)[C@@H]5CC[C@]43C)[C@@H]12 [Compound 13, N-[3β-Hydroxy-30-phenethoxy-lup-20(29)-en-28-oyl]-leucine] | > 16.7 µM | 21.7 µM | – | –
24 | C=C(C)[C@@H]1CC[C@]2(C(=O)N3CCC(CCCC(=O)O)CC3)CC[C@]3(C)[C@H](CC[C@@H]4[C@@]5(C)CC[C@H](OC(=O)CC(C)(C)C(=O)O)C(C)(C)[C@@H]5CC[C@]43C)[C@@H]12 [Compound 39, N-[3β-O-(3′,3′-Dimethylsuccinyl)-lup-20(29)-en-28-oyl]-4-piperidine butyric acid] | 0.015 µM | 20.8 µM | – | –
25 | C=C(CBr)[C@@H]1CC[C@]2(C(=O)N[C@@H](CC(C)C)C(=O)O)CC[C@]3(C)[C@H](CC[C@@H]4[C@@]5(C)CC[C@H](O)C(C)(C)[C@@H]5CC[C@]43C)[C@@H]12 [Compound 24, N-[3β-Hydroxy-30-bromo-lup-20(29)-en-28-oyl]-leucine] | > 16.7 µM | 26.8 µM | – | –

From patent publication US20120101098A1, “3,28-DISUBSTITUTED BETULINIC ACID DERIVATIVES AS ANTI-HIV AGENTS” (priority 2009, published 2012)
